What was measured:
Assay in all cases: Field trial, post-emergence weed control, visual percent control
Format in all cases: in vivo
[1] = system: AMBTR: giant ragweed (Ambrosia trifida); settings: 49 DAA, ON, halauxifen-methyl 5, fluroxypyr-meptyl 77, 2,4-D ester 350 g ae/ha, each alone or three-way combination
Excerpt: (§1) Nine small plot field trials were established across various ecozones in Alberta, Saskatchewan, Manitoba and Ontario, Canada, between 2011 and 2014 to evaluate potential synergy between 1) halauxifen-methyl (100 grams acid equivalent per kilogram (g ae/kg)), fluroxypyr-meptyl as Starane II EC (333 grams acid equivalent per liter (g ae/L) fluroxypyr), and MCPA 2-ethylhexyl ester (MCPA ester; 600 g ae/L), 2) the halauxifen-methyl+fluroxypyr premix (16.25 g ae/L halauxifen-methyl and 250 g ae/L fluroxypyr-meptyl) and MCPA ester (600 g ae/L), and 3) halauxifen-methyl (100 g ae/kg), fluroxypyr-meptyl as Starane II EC (333 g ae/L fluroxypyr), and 2,4-D 2-ethylhexyl ester (2,4-D ester; 660 g ae/L). In trials evaluating synergy between halauxifen-methyl, fluroxypyr-meptyl, and MCPA ester, actives were applied individually at rates of 6.5, 100, and 420 grams acid equivalent per hectare (g ae/ha), respectively, and in a three-way combination at identical rates. When applied individually, halauxifen-methyl was applied in all trials with Turbocharge adjuvant (50% mineral oil/39.5% surfactant blend) at 0.5% volume per volume (v/v). In trials evaluating synergy between the halauxifen-methyl+fluroxypyr premix, and MCPA ester, premix and MCPA ester were applied individually at rates of 82 g ae/ha (5 g ae/ha halauxifen-methyl+77 g ae/ha fluroxypyr) or 106.5 g ae/ha (6.5 g ae/ha halauxifen-methyl+100 g ae/ha fluroxypyr), and 350 or 420 g ae/ha MCPA ester, respectively, and in a two-way combination at rates of 82 g ae/ha premix+350 g ae/ha MCPA ester or […] premix+420 g ae/ha MCPA ester. When applied individually, the halauxifen-methyl+fluroxypyr premix was applied at a rate of 106.5 g ae/ha without an adjuvant, or at a rate of 82 g ae/ha with Turbocharge adjuvant at 0.5% v/v. In trials evaluating synergy between halauxifen-methyl, fluroxypyr-meptyl, and 2,4-D ester, actives were applied individually at rates of 5, 77, and 350 grams acid equivalent per hectare (g ae/ha), respectively, and in a three-way combination at identical rates. When applied individually, halauxifen-methyl was applied with Intake adjuvant (586 grams per liter (g/L) paraffinic oil/242 g/L alkoxylated alcohol non-ionic surfactants) at 1% volume per volume (v/v).
(§2) Trials were established as randomized complete blocks (RCBD) with four replicates. Individual treatments were 2-3 meters (m) wide and 10-11 m long. An untreated control was included in each trial. All trial sites had naturally occurring populations of weeds, which in some trials were augmented with additional weed seeds during trial establishment.
(§3) Herbicides were applied with backpack, bicycle, or tractor-mounted sprayers using carbon dioxide (CO2) as a propellant. All sprayers delivered a uniform spray pattern that provided thorough coverage of the foliage using a water volume of 100-200 liters per hectare (L/ha). All herbicides were applied post-emergence in the spring to early-summer. At the time of herbicide applications, spring wheat, durum wheat, and winter wheat crops were at the four-leaf to three-node stage. Broadleaf weeds were at the seedling stage at the time of herbicide applications.
(§4) Foliar damage to target pest plants was visually assessed as percent control, compared to an untreated control plot. The assessments were based on a percent visual reduction in pest plant biomass and/or stand reduction of weed population. In general, three-to-four replicates were assessed for each treatment, and the results for each experiment (trial) are presented as overall average control. The efficacy of all treatments was assessed at 13-22 days after application (DAA) for an early season rating, 23-39 DAA for a mid-season rating, and 41-84 DAA for a late-season rating. The data were statistically analyzed using various statistical methods, generally including a Tukey's HSD Factorial Analysis of Variance with a significance level of 5%. […]

[2] = system: TRFPR: red clover (Trifolium pratense); settings: 84 DAA, ON, halauxifen-methyl 5, fluroxypyr-meptyl 77, 2,4-D ester 350 g ae/ha, each alone or three-way combination
Excerpt: as §1, §2, §3, §4

[3] = system: AMBEL: ragweed, common (Ambrosia artemisiifolia); settings: 28 DAA, ON, premix 5 + 77 (82) g ae/ha, MCPA ester 350 g ae/ha, alone or combined
Excerpt: as §1, §2, §3, §4

[4] = system: BRSNN: canola, volunteer (Brassica napus); settings: SK
Excerpt: as §1, §2, §3, §4

[5] = system: POLPE: lady's-thumb (Polygonum persicaria)
Excerpt: as §1, §2, §3, §4

[6] = system: STEME: chickweed, common (Stellaria media); settings: 59 DAA, AB
Excerpt: as §1, §2, §3, §4

[7] = system: POLCO: wild buckwheat (Polygonum convolvulus); settings: premix 6.5 + 100 (106.5) g ae/ha, MCPA ester 420 g ae/ha, alone or combined
Excerpt: as §1, §2, §3, §4

[8] = system: GAETE: hemp-nettle (Galeopsis tetrahit); settings: 14 DAA, AB
Excerpt: as §1, §2, §3, §4

[9] = system: ARTAB: absinth wormwood (Artemisia absinthium); settings: 47 DAA, MB, premix 6.5 + 100 (106.5) g ae/ha, MCPA ester 420 g ae/ha, alone or combined
Excerpt: as §1, §2, §3, §4

[10] = 14 DAA, halauxifen-methyl 6.5, fluroxypyr-meptyl 100, MCPA ester 420 g ae/ha, each alone or three-way combination
[11] = 33 DAA, halauxifen-methyl 6.5, fluroxypyr-meptyl 100, MCPA ester 420 g ae/ha, each alone or three-way combination
[12] = 14 DAA, AB, halauxifen-methyl 6.5, fluroxypyr-meptyl 100, MCPA ester 420 g ae/ha, each alone or three-way combination
[13] = 49 DAA, AB, halauxifen-methyl 6.5, fluroxypyr-meptyl 100, MCPA ester 420 g ae/ha, each alone or three-way combination
[14] = 57 DAA, AB, halauxifen-methyl 6.5, fluroxypyr-meptyl 100, MCPA ester 420 g ae/ha, each alone or three-way combination
[15] = 59 DAA, AB, halauxifen-methyl 6.5, fluroxypyr-meptyl 100, MCPA ester 420 g ae/ha, each alone or three-way combination
[16] = SK, 49 DAA or 57 DAA, halauxifen-methyl 6.5, fluroxypyr-meptyl 100, MCPA ester 420 g ae/ha, each alone or three-way combination
[17] = halauxifen-methyl 6.5, fluroxypyr-meptyl 100, MCPA ester 420 g ae/ha, each alone or three-way combination
[18] = premix 6.5 + 100 (106.5) g ae/ha, MCPA ester 420 g ae/ha, alone or combined

SMILES	Obs: Observed percent weed control [1] [%]	Obs: Observed percent weed control [2] [%]	Obs: Observed percent weed control [4, 10] [%]	Obs: Observed percent weed control [4, 11] [%]	Obs: Observed percent weed control [5, 12] [%]	Obs: Observed percent weed control [5, 13] [%]	Obs: Observed percent weed control [5, 14] [%]	Obs: Observed percent weed control [5, 15] [%]	Obs: Observed percent weed control [5, 16] [%]	Obs: Observed percent weed control [6, 17] [%]	Obs: Observed percent weed control [8, 17] [%]	other results
CCCCC(CC)COC(=O)COc1ccc(Cl)cc1Cl (centres unmarked) [2,4-D ester, 2-ethylhexyl(2,4-dichlorophenoxy)acetate]	83	7.4										
CCCCC(CC)COC(=O)COc1ccc(Cl)cc1C (centres unmarked) [MCPA ester, 2-ethylhexyl 2-(4-chloro-2-methylphenoxy)acetate]			80	95	0	0	0	35	30	0	31	Obs: Observed percent weed control [3]: 15%; Obs: Observed percent weed control ([4]; 33 DAA, premix 6.5 + 100 (106.5) g ae/ha, MCPA ester 420 g ae/ha, alone or combined): 95%; Obs: Observed percent weed control ([5]; 14 DAA, MB, premix 5 + 77 (82) g ae/ha, MCPA ester 350 g ae/ha, alone or combined): 38%; Obs: Observed percent weed control ([5]; 14 DAA, MB, premix 6.5 + 100 (106.5) g ae/ha, MCPA ester 420 g ae/ha, alone or combined): 38%; Obs: Observed percent weed control ([5]; 34 DAA, MB, premix 5 + 77 (82) g ae/ha, MCPA ester 350 g ae/ha, alone or combined): 40%; Obs: Observed percent weed control ([5]; 34 DAA, MB, premix 6.5 + 100 (106.5) g ae/ha, MCPA ester 420 g ae/ha, alone or combined): 40%; Obs: Observed percent weed control ([5]; 49 DAA (likely), MB, premix 6.5 + 100 (106.5) g ae/ha, MCPA ester 420 g ae/ha, alone or combined): 27%; Obs: Observed percent weed control ([5]; 49 DAA, AB, premix 6.5 + 100 (106.5) g ae/ha, MCPA ester 420 g ae/ha, alone or combined): 0%; Obs: Observed percent weed control ([5]; 54 DAA, MB, premix 6.5 + 100 (106.5) g ae/ha, MCPA ester 420 g ae/ha, alone or combined): 38%; Obs: Observed percent weed control ([5]; 57 DAA, AB, premix 6.5 + 100 (106.5) g ae/ha, MCPA ester 420 g ae/ha, alone or combined): 0%; Obs: Observed percent weed control ([5]; 59 DAA, AB, premix 6.5 + 100 (106.5) g ae/ha, MCPA ester 420 g ae/ha, alone or combined): 35%; Obs: Observed percent weed control [6, 18]: 0%; Obs: Observed percent weed control ([7]; 35 DAA, MB): 0%; Obs: Observed percent weed control ([7]; 47 DAA, MB): 0%; Obs: Observed percent weed control ([7]; 63 DAA, AB): 43%; Obs: Observed percent weed control [8, 18]: 31%; Obs: Observed percent weed control [9]: 0%
COC(=O)c1nc(-c2ccc(Cl)c(OC)c2F)cc(N)c1Cl [Halauxifen-methyl, methyl 4-amino-3-chloro-6-(4-chloro-2-fluoro-3-methoxyphenyl)-2-pyridinecarboxylate]	20	15	20	15	0	0	0	33	10	24	79	
CCCCCCC(C)OC(=O)COc1nc(F)c(Cl)c(N)c1Cl (centres unmarked) [Fluroxypyr-meptyl, 1-methylheptyl 2-[(4-amino-3,5-dichloro-6-fluoro-2-pyridinyl)oxy]acetate]	21.7	12.4	30	20	0	0	23	61	25	15	39	

Reference: patent US20150196030A1, “HERBICIDAL COMPOSITION CONTAINING 4-AMINO-3-CHLORO-6-(4-CHLORO-2-FLUORO-3-METHOXYPHENYL) PYRIDINE-2-CARBOXYLIC ACID OR DERIVATIVES THEREOF, FLUROXYPYR OR DERIVATIVES THEREOF, AND PHENOXY AUXINS OR DERIVATIVES THEREOF” (DOW AGROSCIENCES LLC, priority 2014, published 2015)
